The values that follow come from patent US20100226931A1, “Compounds for immunopotentiation” (priority 2004, published 2010).

SMILES strings stand for the structures.

`Clc1ccc(Nc2nnc(Cc3ccncc3)c3ncccc23)cc1` gave a melting point of 220 to 222 °C.

What is called melting point is the temperature of the solid-liquid transition.
